Structures can show the parent of a compound that is named as a salt. Where two headings read alike, the source gives them in different places.
Columns and labels:
VSV_Blam_VLP fusion = assay: microbe, parasite or virus in culture; assay type: cell-based; details: Vesicular stomatitis virus, HeLa Kyoto, read-out: Inhibition of VSV_Blam_VLP fusion compared to DMSO controls
HSV-1 = assay: microbe, parasite or virus in culture; assay type: cell-based, herpes simplex virus 1; details: 8 h
RABV VLP = assay: microbe, parasite or virus in culture; assay type: cell-based, rabies virus; details: Lyssavirus rabies, HeLa Kyoto, 24 h, read-out: IC50 RABV
VSV VLP = assay: microbe, parasite or virus in culture; assay type: cell-based, vesicular stomatitis virus; details: Vesicular stomatitis virus, HeLa Kyoto, 24 h, read-out: IC50 VSV
in vitro [1] = details: human
HIV-1 = assay: microbe, parasite or virus in culture; assay type: cell-based, human immunodeficiency virus type 1
H5N1 VLP = assay: microbe, parasite or virus in culture; assay type: cell-based, influenza H5N1; details: Influenza A virus, H5N1, HeLa Kyoto, 48 h, read-out: IC50 H5N1
in vitro [2] = details: human; remark: listed apart in the source
SINV = assay: microbe, parasite or virus in culture; assay type: cell-based, Sindbis virus; details: Sindbis virus, HeLa Kyoto, read-out: IC50 SINV
DENV-1 = assay: microbe, parasite or virus in culture; assay type: cell-based, dengue virus; details: Dengue virus, DENV1, Huh-7, read-out: IC50 DENV-1
YF17D = assay: organism not typed; assay type: cell-based, yellow fever 17D; details: Huh-7, read-out: IC50 YF17D
VACV = assay: microbe, parasite or virus in culture; assay type: cell-based, vaccinia virus
[3] = test system: DID-labelled SFV hemifusion/fusion; assay type: cell-based, Semliki Forest virus; details: HeLa Kyoto, 10 μM (20 μM Raloxifene; Bafilomycin 100 nM), 40 min at 37 °C
[4] = test system: Renilla luciferase expression (protein synthesis); assay type: cell-based
in vivo = details: CD1, mouse, 1 mg/kg
SFV E1 trimer formation = details: HeLa Kyoto, MOI 100; Chloroquine 100 μM
SFV [5] = assay: microbe, parasite or virus in culture; assay type: cell-based, Semliki Forest virus; details: Semliki Forest virus; for IC50: HeLa Kyoto, read-out: IC50 SFV (7 h); for inhibition at 10 µM: M-HeLa, 7 h, read-out: % inhibition (SFV screen)
SFV internalisation = assay type: cell-based, Semliki Forest virus
EBOV VLP = assay: microbe, parasite or virus in culture; assay type: cell-based, Ebola virus; details: Zaire ebolavirus, HeLa Kyoto, 48 h, read-out: IC50 EBOV
ZIKV [6] = details: AG129 mice; for Infectious virus in the blood at day 7 p.i.: immunofocus assay
viruses/VLPs tested = assay type: cell-based
[7] = 10 mg/kg
HCV = assay: microbe, parasite or virus in culture; assay type: cell-based, hepatitis C virus; details: Hepatitis C virus, Huh7.5, read-out: IC50 HCV
Huh7 cells = details: human
ZIKV [8] = assay: microbe, parasite or virus in culture; assay type: cell-based, Zika virus; details: Zika virus, Huh-7, read-out: IC50 ZIKV
SFV [9] = assay type: cell-based, Semliki Forest virus
DENV-2 = DENV-2 infection assay / secondary screen (E protein staining); assay type: cell-based, dengue virus serotype 2; details: Dengue virus, DENV2, Huh-7, 24 h; for inhibition at 10 µM: read-out: % inhibition (DENV-2 screen)
DENV-3 = assay: microbe, parasite or virus in culture; assay type: cell-based, dengue virus; details: Dengue virus, DENV3, Huh-7, read-out: IC50 DENV-3
HeLa Kyoto cells = details: human, 7 h
[10] = mouse, in vivo; cited from earlier work
[11] = read-out: IC50 DENV-2 (7 + 17 h)

| SMILES | inhibition at 10 µM (VSV_Blam_VLP fusion) | IC50 (RABV VLP) | IC50 (VSV VLP) | IC50 (H5N1 VLP) | IC50 (SINV) | IC50 (DENV-1) | IC50 (YF17D) | SFV E1 trimer formation (SFV E1 trimer formation) | IC50 (SFV [5]) | inhibition at 10 µM (SFV [5]) | IC50 (EBOV VLP) | Infectious virus in the blood at day 7 p.i. (ZIKV [6]) | IC50 (HCV) | TC50 DENV-2 (7 + 17 h) (Huh7 cells) | IC50 (ZIKV [8]) | Activity when added before SFV or 30 and 60 min after internalisation (SFV [9]) | inhibition at 10 µM (DENV-2) | IC50 (DENV-2; [11]) | IC50 (DENV-2; read-out: IC50 DENV-2 (24 h)) | IC50 (DENV-3) | other results |
| --- | --- | --- | --- | --- | --- | --- | --- | --- | --- | --- | --- | --- | --- | --- | --- | --- | --- | --- | --- | --- | --- |
| CC(C)(C)c1cc(C=C(C#N)C#N)cc(C(C)(C)C)c1O [Tyrphostin A9] | > 50% | 1.4 µM | 4.1 µM | < 0.5 µM | ~0.8 µM | 1.4 µM | < 0.3 µM | No trimers were observed | 2.9 µM | 73.5% | 3.2 µM | infectious virus was detected in only two of six mice | < 0.3 µM | >50 µM | < 0.3 µM | minor but reproducible decrease in activity | 99.7% | 1.2 µM | 0.4 µM | 1.2 µM | IC50 (HSV-1; Human alphaherpesvirus 1, Vero, read-out: IC50 HSV (Vero)): 1.5 µM; Blood peak (Tyrphostin A9 1 mg/kg IP): 5 µM; Peak blood concentration (Tyrphostin A9 1 mg/kg PO, CD1 mice): 1.52 µM; viability at 24 h, 10 µM (in vitro [1]): 50.5%; IC50 (HIV-1; Human immunodeficiency virus 1, 24 h, read-out: IC50 HIV): 1.1 µM; viability at 10 µM (in vitro [2]): 105%; IC50 (VACV; Orthopoxvirus vaccinia, HeLa Kyoto, 8 h, read-out: IC50 VACV): 3.4 µM; Inhibition of DID-SFV de-quenching (in words) [3]: Strong inhibition of de-quenching; Decrease of Renilla signal (protein synthesis) [4]: more than 50%; concentration at 2 h (in vivo): 20 nM; concentration at 8 h (in vivo): 760 nM; Tmax (in vivo; po): 1 h; Internalised SFV E1/E2 after subtilisin treatment (SFV internalisation): Loss of E1/E2; ZIKV blood titres at days 1 and 3 (ZIKV [6]; Tyrphostin A9 1 mg/kg PO, vs untreated): only minor and non significant differences; ZIKV-infected CD14+CD11c+ dendritic cells in blood, day 7 p.i. (ZIKV [6]; without statistical significance): fewer infected CD14+CD11c+ dendritic cells; Reason for suspending administration (ZIKV [6]; Tyrphostin A9 1 mg/kg PO, after the fourth administration): toxicity and weight loss; Viruses Inhibited (viruses/VLPs tested): All tested; Toxicity [7]: toxicity; TC50 DENV-2 (24 h) (Huh7 cells): 28.5 µM; Time of Addition (SFV [9]): Before and after fusion |
| CC[C@@]1([C@@H]2O[C@@H]([C@H]3O[C@@](O)(CO)[C@H](C)C[C@@H]3C)C[C@@H]2C)CC[C@H]([C@]2(C)CC[C@]3(C[C@H](O)[C@@H](C)[C@@H]([C@@H](C)[C@@H](OC)[C@H](C)C(=O)O)O3)O2)O1 [Monensin, Monensin sodium salt] | > 50% | 0.8 µM | 0.7 µM | 0.9 µM | 0.4 µM | 6.2 µM | < 0.3 µM | prevented trimer formation | 1.1 µM | 81.4% | 4.5 µM | cleared infectious virus from the blood by day 7 | 2.5 µM | >50 µM | 5.5 µM | progressive and more dramatic decrease in activity | 100% | 4.5 µM | 3.8 µM | ~3.6 µM | IC50 HSV (Vero) (HSV-1; virus, Vero cells): No inhibition; viability at 10 µM (in vitro [1]): 81%; IC50 HIV (HIV-1; virus, HeLa TZM-bl, 24 h): No inhibition; viability at 10 µM (in vitro [2]; % viability (SFV screen)): 108%; IC50 VACV (VACV): No inhibition; TC50 SFV (7 h) (HeLa Kyoto cells): >50 µM; TC50 SFV (7h) (HeLa Kyoto cells): >50000 µM; ZIKV blood titres at day 1 p.i. (ZIKV [6]; qRT-PCR and immunofocus assay, vs untreated): significantly reduced blood titres; Well tolerated dose [10]: up to 70 mg/kg; TC50 DENV-2 (24 h) (Huh7 cells; 24 h): >50 µM |
